Results on two compounds are retold here after patent EP1061945B1, “USE OF VIP ANALOGUES FOR PREVENTING AND TREATING BRAIN DAMAGE IN HUMAN BABIES” (ASSISTANCE PUBLIQUE - HOPITAUX DE PARIS, priority 1998, dated 2002).

The assay relates to lésions excitotoxiques induites par l'iboténate dans le cerveau de souris en développement. Description: Ibotenate-induced excitotoxic brain lesions in newborn mice (intracerebral ibotenate at JN or JN+5). The assay is classed as in vivo. From the text:
Le modèle chez la souris obtenu par injection intracérébrale d'iboténate reproduit : • des lésions du cortex cérébral, semblables à celles observées chez le foetus humain entre 16 et 25 semaines de grossesse, lorsque l'iboténate est injecté le jour de la naissance (JN), • des lésions du cortex cérébral semblables aux lésions du nouveau-né humain à terme, lorsque l'injection d'iboténate est effectuée à JN + 5 et • des lésions de la substance blanche, semblables aux lésions du prématuré humain, lorsque l'iboténate est injecté à JN + 5.
Dans l'ensemble de ces figures : * = p<0,05, ** = p<0,01 (ANOVA + test de comparaison multiple de Dunnett par rapport aux contrôles (iboténate seul)).
Les souris sont préparées comme décrit dans J Clin. Investig. précité.
Le VIP est injecté par voie intracérébrale à raison de 1 µg (dose par animal) et les VIP cycliques ont été injectés par voie intrapéritonéale à raison de 10 µg (dose par animal).

[1] abbreviates: ibotenate at JN+5, peptide by intracerebral route.
The mark [2] stands for this setting: ibotenate at JN+5, peptide by intraperitoneal route.

Structures are written as SMILES. “Also recorded” adds a separate entry of the source. Bridge positions count the residues as written; N and C are the ends. Square brackets hold non-standard residues; d marks the D form. Peptide text beside a SMILES is read from it. Nle = CCCC[C@H](N)C(=O)O

With `CCCC[C@H](NC(=O)[C@H](CCC(N)=O)NC(=O)[C@H](CCCCN)NC(=O)[C@H](CCCNC(=N)N)NC(=O)[C@H](CC(C)C)NC(=O)[C@H](CCCCN)NC(=O)[C@@H](NC(=O)[C@H](Cc1ccc(O)cc1)NC(=O)[C@H](CC(N)=O)NC(=O)[C@H](CCC(=O)O)NC(=O)[C@@H](NC(=O)[C@H](Cc1ccccc1)NC(=O)[C@@H](NC(=O)[C@H](C)NC(=O)[C@H](CC(=O)O)NC(=O)[C@H](CO)NC(=O)[C@H](Cc1c[nH]cn1)NC(C)=O)C(C)C)[C@@H](C)O)[C@@H](C)O)C(=O)N[C@@H](C)C(=O)N[C@@H](C)C(=O)N[C@@H](CCCCN)C(=O)N[C@H]1CCCCNC(=O)C[C@@H](C(=O)N[C@@H](CC(C)C)C(=O)N[C@@H](CCCCN)C(=O)N[C@@H](CCCCN)C(=O)NCC(=O)NCC(=O)N[C@H](C(N)=O)[C@@H](C)O)NC(=O)[C@H](CC(N)=O)NC(=O)[C@H](CC(C)C)NC(=O)[C@H](Cc2ccc(O)cc2)NC1=O` [SEQ ID NO:2] (Ac-HSDAVFTENYTKLRKQ[Nle]AAKKYLNDLKKGGT-NH2; lactam 21-25), the “delay of administration after the ibotenate injection within which the effects at JN+5 are observed” value (JN+5, peptide given after ibotenate) is 8 à 12 heures. Moreover, the “taille des lésions corticales” value is “n'est significative que lorsque l'analogue cyclique du VIP de SEQ ID NO:2 est administré par voie parentérale; also recorded: une certaine protection du cortex cérébral” under setting [1] and “significative; also recorded: une certaine protection du cortex cérébral, surtout en intrapéritonéale” (ibotenate at JN+5, peptide by intraperitoneal (parenteral) route). Moreover, the “taille des lésions de substance blanche” value is recorded as “diminution de la taille des lésions de substance blanche significative; also recorded: protège significativement la substance blanche” under setting [1] and “diminution de la taille des lésions de substance blanche significative; also recorded: activité significative; also recorded: protège significativement la substance blanche” under setting [2].

As to `CCCC[C@H](NC(=O)[C@H](CCCNC(=N)N)NC(=O)[C@H](CCCCN)NC(=O)[C@H](CCCNC(=N)N)NC(=O)[C@H](CC(C)C)NC(=O)[C@H](CCCCN)NC(=O)[C@@H](NC(=O)[C@H](Cc1ccc(O)cc1)NC(=O)[C@H](CC(N)=O)NC(=O)[C@H](CCC(=O)O)NC(=O)[C@@H](NC(=O)[C@H](Cc1ccccc1)NC(=O)[C@@H](NC(=O)[C@H](C)NC(=O)[C@H](CC(=O)O)NC(=O)[C@H](CO)NC(=O)[C@H](Cc1c[nH]cn1)NC(C)=O)C(C)C)[C@@H](C)O)[C@@H](C)O)C(=O)N[C@@H](C)C(=O)N[C@@H](C)C(=O)N[C@@H](CCCCN)C(=O)N[C@H]1CCCCNC(=O)C[C@@H](C(=O)N[C@@H](CC(C)C)C(=O)N[C@@H](CCCCN)C(=O)N[C@@H](CCCCN)C(=O)NCC(=O)NCC(=O)N[C@H](C(N)=O)[C@@H](C)O)NC(=O)[C@H](CC(N)=O)NC(=O)[C@H](CC(C)C)NC(=O)[C@H](Cc2ccc(O)cc2)NC1=O` [SEQ ID NO:3] (Ac-HSDAVFTENYTKLRKR[Nle]AAKKYLNDLKKGGT-NH2; lactam 21-25), under setting [2], the “taille des lésions de substance blanche” value is on record as “reproduit les effets neuroprotecteurs de l'analogue cyclique de VIP de SEQ ID NO:2”. In addition, under “ibotenate at JN, given at the same time, cyclic VIP intraperitoneal, 10 µg per animal”, the “taille des lésions corticales” value is on record as “reproduit les effets neuroprotecteurs de l'analogue cyclique de VIP de SEQ ID NO:2”.
